# Reference: ChEMBL document CHEMBL4011590, “Structure-activity relationship studies on 3,5-dinitrophenyl tetrazoles as antitubercular agents” (Eur J Med Chem, 2017)
# Tests used:
# Aspergillus fumigatus [1] = assay: Antifungal activity against Aspergillus fumigatus 231 after 48 hrs by broth microdilution method; assay type: functional; conditions: Aspergillus fumigatus, 231, 48 h
# [2] = tested on: Trichophyton mentagrophytes; assay: Antifungal activity against Trichophyton mentagrophytes 445 after 72 hrs by broth microdilution method; assay type: functional; conditions: Trichophyton mentagrophytes, 445, 72 h
# Klebsiella pneumoniae [3] = assay: Antibacterial activity against Klebsiella pneumoniae HK11750/08 after 48 hrs by broth microdilution method; assay type: functional; conditions: HK11750/08, 48 h
# Pseudomonas aeruginosa [4] = assay: Antibacterial activity against Pseudomonas aeruginosa ATCC 9027 after 24 hrs by broth microdilution method; assay type: functional; conditions: ATCC 9027, 24 h
# Mycobacterium kansasii [5] = assay: Antimycobacterial activity against Mycobacterium kansasii CNCTC My 235/80 after 21 days by micromethod; assay type: functional; conditions: CNCTC My 235/80, 504 h
# [6] = tested on: Mycobacterium tuberculosis; assay: Antimycobacterial activity against Mycobacterium tuberculosis H37Rv CNCTC My 331/88 after 14 days by micromethod; assay type: functional; conditions: H37Rv CNCTC My 331/88, 336 h
# Mycobacterium kansasii [7] = assay: Antimycobacterial activity against Mycobacterium kansasii CNCTC My 235/80 after 14 days by micromethod; assay type: functional; conditions: CNCTC My 235/80, 336 h
# Staphylococcus aureus [8] = assay: Antibacterial activity against methicillin-resistant Staphylococcus aureus HK5996/08 after 24 hrs by broth microdilution method; assay type: functional; conditions: HK5996/08, 24 h
# Klebsiella pneumoniae [9] = assay: Antibacterial activity against extended spectrum beta-lactamase producing Klebsiella pneumoniae HK14368/08 after 48 hrs by broth microdilution method; assay type: functional; conditions: HK14368/08, 48 h
# Mycobacterium avium [10] = assay: Antimycobacterial activity against Mycobacterium avium CNCTC My 330/80 after 14 days by micromethod; assay type: functional; conditions: CNCTC My 330/80, 336 h
# Klebsiella pneumoniae [11] = assay: Antibacterial activity against Klebsiella pneumoniae HK11750/08 after 24 hrs by broth microdilution method; assay type: functional; conditions: HK11750/08, 24 h
# Trichosporon asahii [12] = assay: Antifungal activity against Trichosporon asahii 1188 after 48 hrs by broth microdilution method; assay type: functional; conditions: Trichosporon asahii, 1188, 48 h
# [13] = tested on: Trichophyton mentagrophytes; assay: Antifungal activity against Trichophyton mentagrophytes 445 after 120 hrs by broth microdilution method; assay type: functional; conditions: Trichophyton mentagrophytes, 445, 120 h
# Mycobacterium kansasii [14] = assay: Antimycobacterial activity against Mycobacterium kansasii CNCTC My 235/80 after 7 days by micromethod; assay type: functional; conditions: CNCTC My 235/80, 168 h
# CHO-K1 = assay: Cytotoxicity against CHOK1 cells after 24 hrs by MTT assay; assay type: cell-based; conditions: Cricetulus griseus, CHO-K1, 24 h
# Enterococcus sp. [15] = assay: Antibacterial activity against Enterococcus sp. HK14365/08 after 24 hrs by broth microdilution method; assay type: functional; conditions: HK14365/08, 24 h
# Staphylococcus aureus [16] = assay: Antibacterial activity against Staphylococcus aureus ATCC 6538 after 24 hrs by broth microdilution method; assay type: functional; conditions: ATCC 6538, 24 h
# Trichosporon asahii [17] = assay: Antifungal activity against Trichosporon asahii 1188 after 24 hrs by broth microdilution method; assay type: functional; conditions: Trichosporon asahii, 1188, 24 h
# Candida tropicalis [18] = assay: Antifungal activity against Candida tropicalis 156 after 24 hrs by broth microdilution method; assay type: functional; conditions: Candida tropicalis, 156, 24 h
# Pseudomonas aeruginosa [19] = assay: Antibacterial activity against Pseudomonas aeruginosa ATCC 9027 after 48 hrs by broth microdilution method; assay type: functional; conditions: ATCC 9027, 48 h
# Pichia kudriavzevii [20] = assay: Antifungal activity against Candida krusei E28 after 24 hrs by broth microdilution method; assay type: functional; conditions: E28, 24 h
# Escherichia coli [21] = assay: Antibacterial activity against Escherichia coli ATCC 8739 after 24 hrs by broth microdilution method; assay type: functional; conditions: ATCC 8739, 24 h
# Lichtheimia corymbifera [22] = assay: Antifungal activity against Absidia corymbifera 272 after 48 hrs by broth microdilution method; assay type: functional; conditions: Lichtheimia corymbifera, 272, 48 h
# Enterococcus sp. [23] = assay: Antibacterial activity against Enterococcus sp. HK14365/08 after 48 hrs by broth microdilution method; assay type: functional; conditions: HK14365/08, 48 h
# Staphylococcus aureus [24] = assay: Antibacterial activity against Staphylococcus aureus ATCC 6538 after 48 hrs by broth microdilution method; assay type: functional; conditions: ATCC 6538, 48 h
# Mycobacterium kansasii [25] = assay: Antimycobacterial activity against Mycobacterium kansasii isolate 6509/96 after 14 days by micromethod; assay type: functional; conditions: isolate 6509/96, 336 h
# Candida albicans [26] = assay: Antifungal activity against Candida albicans ATCC 44859 after 24 hrs by broth microdilution method; assay type: functional; conditions: ATCC 44859, 24 h
# [27] = tested on: Staphylococcus epidermidis; assay: Antibacterial activity against Staphylococcus epidermidis HK6966/08 after 24 hrs by broth microdilution method; assay type: functional; conditions: HK6966/08, 24 h
# Mycobacterium kansasii [28] = assay: Antimycobacterial activity against Mycobacterium kansasii isolate 6509/96 after 7 days by micromethod; assay type: functional; conditions: isolate 6509/96, 168 h
# Mycobacterium kansasii [29] = assay: Antimycobacterial activity against Mycobacterium kansasii isolate 6509/96 after 21 days by micromethod; assay type: functional; conditions: isolate 6509/96, 504 h
# Klebsiella pneumoniae [30] = assay: Antibacterial activity against extended spectrum beta-lactamase producing Klebsiella pneumoniae HK14368/08 after 24 hrs by broth microdilution method; assay type: functional; conditions: HK14368/08, 24 h
# Escherichia coli [31] = assay: Antibacterial activity against Escherichia coli ATCC 8739 after 48 hrs by broth microdilution method; assay type: functional; conditions: ATCC 8739, 48 h
# Staphylococcus aureus [32] = assay: Antibacterial activity against methicillin-resistant Staphylococcus aureus HK5996/08 after 48 hrs by broth microdilution method; assay type: functional; conditions: HK5996/08, 48 h
# Nakaseomyces glabratus [33] = assay: Antifungal activity against Candida glabrata 20/I after 24 hrs by broth microdilution method; assay type: functional
# Pichia kudriavzevii [34] = assay: Antifungal activity against Candida krusei E28 after 48 hrs by broth microdilution method; assay type: functional; conditions: E28, 48 h
# [35] = tested on: Staphylococcus epidermidis; assay: Antibacterial activity against Staphylococcus epidermidis HK6966/08 after 48 hrs by broth microdilution method; assay type: functional; conditions: HK6966/08, 48 h
# Candida albicans [36] = assay: Antifungal activity against Candida albicans ATCC 44859 after 48 hrs by broth microdilution method; assay type: functional; conditions: ATCC 44859, 48 h
# Nakaseomyces glabratus [37] = assay: Antifungal activity against Candida glabrata 20/I after 48 hrs by broth microdilution method; assay type: functional
# Aspergillus fumigatus [38] = assay: Antifungal activity against Aspergillus fumigatus 231 after 24 hrs by broth microdilution method; assay type: functional; conditions: Aspergillus fumigatus, 231, 24 h
# Candida tropicalis [39] = assay: Antifungal activity against Candida tropicalis 156 after 48 hrs by broth microdilution method; assay type: functional; conditions: Candida tropicalis, 156, 48 h
# Lichtheimia corymbifera [40] = assay: Antifungal activity against Absidia corymbifera 272 after 24 hrs by broth microdilution method; assay type: functional; conditions: Lichtheimia corymbifera, 272, 24 h
# [41] = tested on: Mycobacterium tuberculosis; assay: Antimycobacterial activity against Mycobacterium tuberculosis H37Rv CNCTC My 331/88 after 21 days by micromethod; assay type: functional; conditions: H37Rv CNCTC My 331/88, 504 h
# Mycobacterium avium [42] = assay: Antimycobacterial activity against Mycobacterium avium CNCTC My 330/80 after 21 days by micromethod; assay type: functional; conditions: CNCTC My 330/80, 504 h
smiles,measurement,setting,value
O=[N+]([O-])c1cc(-c2nnn(Cc3cccc(Cl)c3)n2)cc([N+](=O)[O-])c1,MIC,Aspergillus fumigatus [1],> 500 µM
same,MIC,[2],> 500 µM
same,MIC,Klebsiella pneumoniae [3],> 500 µM
same,MIC,Pseudomonas aeruginosa [4],> 500 µM
same,MIC99,Mycobacterium kansasii [5],2 µM
same,MIC99,[6],0.5 µM
same,MIC99,Mycobacterium kansasii [7],2 µM
same,MIC,Staphylococcus aureus [8],> 500 µM
same,MIC,Klebsiella pneumoniae [9],> 500 µM
same,MIC99,Mycobacterium avium [10],4 µM
same,MIC,Klebsiella pneumoniae [11],> 500 µM
same,MIC,Trichosporon asahii [12],> 500 µM
same,MIC,[13],> 500 µM
same,MIC99,Mycobacterium kansasii [14],1 µM
same,IC50,CHO-K1,27 µM
same,MIC,Enterococcus sp. [15],> 500 µM
same,MIC,Staphylococcus aureus [16],> 500 µM
same,MIC,Trichosporon asahii [17],> 500 µM
same,MIC,Candida tropicalis [18],> 500 µM
same,MIC,Pseudomonas aeruginosa [19],> 500 µM
same,MIC,Pichia kudriavzevii [20],> 500 µM
same,MIC,Escherichia coli [21],> 500 µM
same,MIC,Lichtheimia corymbifera [22],> 500 µM
same,MIC,Enterococcus sp. [23],> 500 µM
same,MIC,Staphylococcus aureus [24],> 500 µM
same,MIC99,Mycobacterium kansasii [25],1 µM
same,MIC,Candida albicans [26],> 500 µM
same,MIC,[27],> 500 µM
same,MIC99,Mycobacterium kansasii [28],0.5 µM
same,MIC99,Mycobacterium kansasii [29],2 µM
same,MIC,Klebsiella pneumoniae [30],> 500 µM
same,MIC,Escherichia coli [31],> 500 µM
same,MIC,Staphylococcus aureus [32],> 500 µM
same,MIC,Nakaseomyces glabratus [33],> 500 µM
same,MIC,Pichia kudriavzevii [34],> 500 µM
same,MIC,[35],> 500 µM
same,MIC,Candida albicans [36],> 500 µM
same,MIC,Nakaseomyces glabratus [37],> 500 µM
same,MIC,Aspergillus fumigatus [38],> 500 µM
same,MIC,Candida tropicalis [39],> 500 µM
same,MIC,Lichtheimia corymbifera [40],> 500 µM
same,MIC99,[41],0.5 µM
same,MIC99,Mycobacterium avium [42],8 µM
